Results published in patent publication US9221875B2, “Amphiphilic peptides for treatment of keratitis” (Agency for Science, Technology and Research, priority 2013, dated 2015).
Converted amounts (≈) assume the structure as drawn. Like-named read-outs stand apart in the source and are kept apart here. Peptide text beside a SMILES is read from it.

Tests used:
[1] = tested on: F. solani; assay type: cell-based; settings: 24 h
Procedure: (§1) The MICs of peptides were determined against the fungi C. albicans (American Type Culture Collection, ATCC) and F. solani (ATCC) by the broth microdilution method. […] F. solani, were cultured on sabouraud dextrose agar plates in incubator at 37° C. To collect conidia following incubation, conidia of F. solani species were harvested and standardized to 1×10^8 spores/ml before performing the experiments. Sabouraud dextrose broth (90 μL) was added to the wells of culture plates. […] The plates were incubated at 37° C. and examined macroscopically after 24 h for the growth of F. solani. Appropriate control wells without any treatment were included in the study. Peptide were considered to be active if the wells appeared clear without any visible growth of F. solani, and the results were expressed as MIC. The assay was performed in four replicates for each concentration.

[2] = tested on: P. aeruginosa; settings: 18 h
[3] = tested on: C. albicans keratitis; test: Contact lens-associated C. albicans keratitis mouse model
[4] = tested on: S. aureus; settings: 18 h
[5] = tested on: C. albicans; settings: 42 h
[6] = tested on: 5 microorganisms tested (S. epidermidis, S. aureus, E. coli, P. aeruginosa, C. albicans); test: Mean MIC over the panel and selectivity index (Example 1); assay type: cell-based
Procedure: Red blood cells suspension incubated with PBS was used as negative control.

[7] = tested on: S. epidermidis; settings: 18 h
[8] = tested on: E. coli; settings: 18 h
[9] = Stability testing, autoclave and 6 weeks at room temperature, MALDI-TOF MS; assay type: physicochemical; settings: 121° C. 15 min, 2 mg/mL, no protection from light
Procedure: Peptides 1 and 2 were dissolved in HPLC-grade water at 2 mg/mL, subjected to a standard steam sterilization autoclave cycle at 121° C. for 15 min, and allowed to stand at room temperature for a period of 6 weeks. The integrity of the peptides was determined by evaluating their molecular weights via MALDI-TOF MS before and after treatment.

[10] = tested on: C. albicans biofilm; test: Biofilm biomass assay, crystal violet; assay type: cell-based, Candida albicans; settings: 500 mg/L, 24 h
Procedure: The biomass of the biofilms was estimated by a crystal violet staining assay. Briefly, the formed biofilms were first treated with the peptide for 24 h as described above. After aspirating the culture medium, the biofilms were rinsed once with PBS, fixed with methanol for 15 min at room temperature and stained with 100 μL of 0.1% (weight by volume) crystal violet for 10 min. The excess crystal violet dye was removed by rinsing the wells with DI water five times. The dye that is associated with the biofilm was extracted using 100 μL of 33% glacial acetic acid per well, and […] aliquot from each well was transferred to a new 96-well plate for quantification of absorbance at a wavelength of 570 nm using a microplate reader (TECAN, Switzerland). The relative amount of biomass remaining after peptide treatment was expressed as a percentage of the control treated with broth containing 10 vol % of water. Data represented mean±standard deviations of 4 replicates for each concentration.

[11] = tested on: C. albicans; test: In vitro killing kinetics; assay type: cell-based, Candida albicans
Procedure: The killing kinetics test was performed to evaluate the antimicrobial activities of peptides against C. albicans. Yeast solution was re-suspended in YMB (Difco) to achieve from 10^5 to 10^6 CFU mL^−1. […] Each dilution (20 μL) was plated on agar plate, and incubated 2 days. Surviving colonies were counted after incubation. An untreated inoculum group was used as a negative control. Tests were conducted in triplicates, and the results were presented as killing efficiency (%).

[12] = tested on: C. albicans
[13] = tested on: S. aureus; settings: 18 h; remark: listed apart in the source
[14] = tested on: rabbit red blood cells; assay type: cell-based; settings: red cells of rabbit, 1 h
[15] = tested on: C. albicans; assay type: cell-based, Candida albicans; settings: 42 h
Procedure: as §1

[16] = tested on: E. coli; settings: 18 h; remark: listed apart in the source
[17] = tested on: S. epidermidis; settings: 18 h; remark: listed apart in the source
[18] = tested on: P. aeruginosa; settings: 18 h; remark: listed apart in the source
[19] = topical eye drops, peptides 3000 mg/L, amphotericin B 1000 mg/L

CC[C@H](C)[C@H](N)C(=O)N[C@@H](CCCCN)C(=O)N[C@H](C(=O)N[C@@H](CCCCN)C(=O)N[C@H](C(=O)N[C@@H](CCCCN)C(=O)N[C@H](C(=O)N[C@@H](CCCCN)C(N)=O)[C@@H](C)CC)[C@@H](C)CC)[C@@H](C)CC [(IKIK)2-NH2] (H-IKIKIKIK-NH2; N-terminus assumed)
MIC F. solani [1]: 31.3 µg/mL (≈ 31.9 µM)
MIC P. aeruginosa [2]: 31.3 µg/mL (≈ 31.9 µM)
fungal cells eradicated from the biofilms compared to the untreated control group ([3]; C. albicans counts in mice cornea, agar plating): ~90%
depth of hyphal invasion into the cornea, PAS histology [3, 19]: reduced the maximal depth of hyphal invasion
resolution of the keratitis infection (eye appearance) [3, 19]: significant resolution of the keratitis infection
clinical scores of mice corneas (slit lamp) ([3]; topical eye drops, peptides 3000 mg/L, amphotericin B 1000 mg/L, P<0.01): significantly lower than that in the control group
MIC S. aureus [4]: 125 µg/mL (≈ 127 µM)
MIC C. albicans [5]: 2.0 µg/mL (≈ 2.04 µM)
GM, geometric mean of MIC values for the 5 microorganisms tested [6]: 38.3 µg/mL
MIC S. epidermidis [7]: 2.0 µg/mL (≈ 2.04 µM)
MIC E. coli [8]: 31.3 µg/mL (≈ 31.9 µM)
molecular weight after autoclaving and 6 weeks at room temperature in water [9]: remained unchanged with no degradation products observed
biomass of C. albicans biofilm [10]: decreased significantly
time after which most fungi were killed ([11]; at 2×MIC and 4×MIC): 1 h
time after which most fungi were killed ([11]; at MIC): 4 h

CC[C@H](C)[C@H](N)C(=O)N[C@H](C(=O)N[C@@H](CCCNC(=N)N)C(=O)N[C@@H](CCCCN)C(=O)N[C@H](C(=O)N[C@H](C(=O)N[C@@H](CCCNC(=N)N)C(=O)N[C@@H](CCCCN)C(N)=O)[C@@H](C)CC)[C@@H](C)CC)[C@@H](C)CC [Control-all L] (H-IIRKIIRK-NH2; N-terminus assumed)
MIC F. solani [1]: >500 µg/mL
MIC C. albicans [12]: 500 µg/mL (≈ 482 µM)
MIC S. aureus [13]: >500 µg/mL
HC10, haemolysis concentration 10%: lowest peptide concentration that induces ≧10% haemolysis [14]: >2000 mg/L
MIC C. albicans [15]: >500 µg/mL
MIC E. coli [16]: >500 µg/mL
MIC S. epidermidis [17]: >500 µg/mL
MIC P aeruginosa [18]: >500 µg/mL
